Assay results from ChEMBL document CHEMBL4229359, “Simple 2(5H)-furanone derivatives with selective cytotoxicity towards non-small cell lung cancer cell line A549 - Synthesis, structure-activity relationship and biological evaluation” (Eur J Med Chem, 2018).
pIC50: −log10 of the molar value. The source made the active and inactive calls. The rule behind the calls is not given here.

How the values were obtained:
BEAS-2B = assay: Cytotoxicity against human BEAS2B cells assessed as reduction in cell viability after 72 hrs by MTT assay; format: cell-based
A549 [1] = assay: Cytotoxicity against human A549 cells assessed as reduction in cell viability after 72 hrs by MTT assay; format: functional, cell-based; details: A549, 72 h
[2] = Selectivity index, ratio of IC50 for human BEAS2B cells to IC50 for human A549 cells; format: toxicity
A549 [3] = assay: Cell cycle arrest in human A549 cells assessed as accumulation at S-phase at 10 uM after 24 hrs by propidium iodide staining based flow cytometry (reference value: 34.1%); format: functional
A549 [4] = assay: Induction of apoptosis in human A549 cells assessed as late apoptotic cells at 20 uM after 72 hrs by Annexin V-FITC/propidium iodide staining based flow cytometry (reference value: 0.5%); format: functional
HT-29 = assay: Cytotoxicity against human HT-29 cells assessed as reduction in cell viability after 72 hrs by MTT assay; format: functional, cell-based; details: HT-29, 72 h
HCT-116 [5] = assay: Cytotoxicity against p53-/- human HCT116 cells assessed as reduction in cell viability after 72 hrs by MTT assay; format: functional, cell-based; details: HCT-116, 72 h
A549 [6] = assay: Induction of apoptosis in human A549 cells assessed as necrotic cells at 20 uM after 72 hrs by Annexin V-FITC/propidium iodide staining based flow cytometry (reference value: 0.6%); format: functional
A549 [7] = assay: Induction of apoptosis in human A549 cells assessed as caspase-3 cleavage at 20 uM after 72 hrs by Western blot analysis; format: functional, cell-based
A549 [8] = assay: Cell cycle arrest in human A549 cells assessed as accumulation at G2/M-phase at 10 uM after 72 hrs by propidium iodide staining based flow cytometry (reference value: 6.3 to 7.2%); format: functional
A549 [9] = assay: Effect on Bad protein expression in human A549 cells at 20 uM after 72 hrs by densitometric analysis; format: functional, cell-based
A549 [10] = assay: Cell cycle arrest in human A549 cells assessed as accumulation at G1-phase at 10 uM after 72 hrs by propidium iodide staining based flow cytometry (reference value: 75.2 to 76%); format: functional
A549 [11] = assay: Cell cycle arrest in human A549 cells assessed as accumulation at S-phase at 10 uM after 72 hrs by propidium iodide staining based flow cytometry (reference value: 16.8 to 18.5%); format: functional
PC-3 = assay: Cytotoxicity against human PC3 cells assessed as reduction in cell viability after 72 hrs by MTT assay; format: functional, cell-based; details: PC-3, 72 h
A549 [12] = assay: Cell cycle arrest in human A549 cells assessed as accumulation at G1-phase at 10 uM after 24 hrs by propidium iodide staining based flow cytometry (reference value: 59.4%); format: functional
HCT-116 [13] = assay: Cytotoxicity against human HCT116 cells assessed as reduction in cell viability after 72 hrs by MTT assay; format: functional, cell-based; details: HCT-116, 72 h
Hep 3B2 = assay: Cytotoxicity against human Hep3B cells assessed as reduction in cell viability after 72 hrs by MTT assay; format: functional, cell-based
A549 [14] = assay: Cell cycle arrest in human A549 cells assessed as accumulation at G2/M-phase at 20 uM after 72 hrs by propidium iodide staining based flow cytometry (reference value: 6.7%); format: functional
A549 [15] = assay: Effect on Bcl-x protein expression in human A549 cells at 20 uM after 72 hrs by densitometric analysis; format: functional, cell-based
A549 [16] = assay: Anticlonogenic activity against human A549 cells at 10 uM after 24 to 72 hrs by crystal violet staining based microscopic method; format: functional, cell-based
DU-145 = assay: Cytotoxicity against human DU145 cells assessed as reduction in cell viability after 72 hrs by MTT assay; format: functional, cell-based; details: DU-145, 72 h
A549 [17] = assay: Upregulation of Cyclin-B1 protein expression in human A549 cells at 10 uM after 72 hrs by Western blot analysis; format: functional, cell-based
A549 [18] = assay: Effect on Bax protein expression in human A549 cells at 20 uM after 72 hrs by densitometric analysis; format: functional, cell-based
A549 [19] = assay: Effect on cleaved caspase-3 protein expression in human A549 cells at 20 uM after 72 hrs by densitometric analysis; format: functional, cell-based
MCF7 = assay: Cytotoxicity against human MCF7 cells assessed as reduction in cell viability after 72 hrs by MTT assay; format: functional, cell-based; details: MCF7, 72 h
LoVo = assay: Cytotoxicity against human LoVo cells assessed as reduction in cell viability after 72 hrs by MTT assay; format: functional, cell-based
U2OS = assay: Cytotoxicity against human U2OS cells assessed as reduction in cell viability after 72 hrs by MTT assay; format: functional, cell-based
A549 [20] = assay: Cell cycle arrest in human A549 cells assessed as accumulation at S-phase at 20 uM after 72 hrs by propidium iodide staining based flow cytometry (reference value: 31.9%); format: functional
A549 [21] = assay: Induction of apoptosis in human A549 cells assessed as live cells at 20 uM after 72 hrs by Annexin V-FITC/propidium iodide staining based flow cytometry (reference value: 98.5%); format: functional
SJSA-1 = assay: Cytotoxicity against human SJSA1 cells assessed as reduction in cell viability after 72 hrs by MTT assay; format: functional, cell-based; details: SJSA-1, 72 h
HepG2 = assay: Cytotoxicity against human HepG2 cells assessed as reduction in cell viability after 72 hrs by MTT assay; format: functional, cell-based; details: HepG2, 72 h
A549 [22] = assay: Cell cycle arrest in human A549 cells assessed as accumulation at G2/M-phase at 10 uM after 24 hrs by propidium iodide staining based flow cytometry (reference value: 6.5%); format: functional
A549 [23] = assay: Induction of apoptosis in human A549 cells assessed as early apoptotic cells at 20 uM after 72 hrs by Annexin V-FITC/propidium iodide staining based flow cytometry (reference value: 0.4%); format: functional
A549 [24] = assay: Effect on Bcl2 protein expression in human A549 cells at 20 uM after 72 hrs by densitometric analysis; format: functional, cell-based
A549 [25] = assay: Effect on Pro-caspase-3 protein expression in human A549 cells at 20 uM after 72 hrs by densitometric analysis; format: functional, cell-based
A549 [26] = assay: Cell cycle arrest in human A549 cells assessed as accumulation at G1-phase at 20 uM after 72 hrs by propidium iodide staining based flow cytometry (reference value: 61.5%); format: functional

CC(C)(C)COC1OC(=O)C(Cl)=C1Nc1ccc(Cl)cc1 (stereo not given)
pIC50 (BEAS-2B): 4.52
pIC50 (A549 [1]): 4.88
log(RatioIC50) [2]: 0.36

CCCCOC1OC(=O)C(Cl)=C1Nc1ccc(F)cc1 (stereo not given)
pIC50 (BEAS-2B): 3.91
pIC50 (A549 [1]): 4.11
log(RatioIC50) [2]: 0.19

O=C1OC(O)C(Cl)=C1Cl (stereo not given) [MUCOCHLORIC ACID]
Activity (A549 [3]): 33.3%
pIC50 (BEAS-2B): 4.35
pIC50 (A549 [1]): 3.91
Activity (A549 [4]): 0.3%
pIC50 (HT-29): 4.66
pIC50 (HCT-116 [5]): 4.97
Activity (A549 [6]): 0.8%
Activity (A549 [7]): inactive
Activity (A549 [8]): 7.2%
Activity (A549 [9]): inactive
Activity (A549 [10]): 74%
Activity (A549 [11]): 18.8%
pIC50 (PC-3): 4.61
Activity (A549 [12]): 58.7%
pIC50 (HCT-116 [13]): 5.08
pIC50 (Hep 3B2): 4.07
Activity (A549 [14]): 6.9%
Activity (A549 [15]): inactive
log(RatioIC50) [2]: -0.44
Activity (A549 [16]): inactive
pIC50 (DU-145): 3.89
Activity (A549 [17]): inactive
Activity (A549 [18]): inactive
Activity (A549 [19]): inactive
pIC50 (MCF7): 4.49
pIC50 (LoVo): 4.76
pIC50 (U2OS): 4.23
Activity (A549 [20]): 29%
Activity (A549 [21]): 98.6%
pIC50 (SJSA-1): 4.40
pIC50 (HepG2): 3.95
Activity (A549 [22]): 8%
Activity (A549 [23]): 0.3%
Activity (A549 [24]): inactive
Activity (A549 [25]): inactive
Activity (A549 [26]): 64.2%

CC(C)(C)COC1OC(=O)C(Cl)=C1Cl (stereo not given)
Activity (A549 [3]): 32.6%
pIC50 (BEAS-2B): 4.23
pIC50 (A549 [1]): 5.11
Activity (A549 [4]): 16.1%
pIC50 (HT-29): 5.14
pIC50 (HCT-116 [5]): 5.21
Activity (A549 [6]): 2.3%
Activity (A549 [7]): inactive
Activity (A549 [8]): 8.4%
Activity (A549 [9]): inactive
Activity (A549 [10]): 74%
Activity (A549 [11]): 17.6%
pIC50 (PC-3): 5.22
Activity (A549 [12]): 62.1%
pIC50 (HCT-116 [13]): 5.14
pIC50 (Hep 3B2): 4.56
Activity (A549 [14]): 8%
Activity (A549 [15]): inactive
log(RatioIC50) [2]: 0.88
Activity (A549 [16]): Active
pIC50 (DU-145): 4.57
Activity (A549 [17]): inactive
Activity (A549 [18]): inactive
Activity (A549 [19]): inactive
pIC50 (MCF7): 4.95
pIC50 (LoVo): 5.14
pIC50 (U2OS): 4.42
Activity (A549 [20]): 40.8%
Activity (A549 [21]): 77.7%
pIC50 (SJSA-1): 4.95
pIC50 (HepG2): 4.75
Activity (A549 [22]): 5.3%
Activity (A549 [23]): 4.2%
Activity (A549 [24]): inactive
Activity (A549 [25]): inactive
Activity (A549 [26]): 51.2%

CC(C)(C)COC1OC(=O)C(Cl)=C1Nc1ccc(F)cc1 (stereo not given)
pIC50 (BEAS-2B): 4.32
pIC50 (A549 [1]): 4.57
log(RatioIC50) [2]: 0.25

CCCCOC1OC(=O)C(Cl)=C1Nc1ccc(Br)cc1 (stereo not given)
pIC50 (BEAS-2B): 4.37
pIC50 (A549 [1]): 4.33
log(RatioIC50) [2]: -0.04

CC(C)OC1OC(=O)C(Cl)=C1Nc1ccccc1 (stereo not given)
pIC50 (BEAS-2B): < 3.40
pIC50 (A549 [1]): < 3.40

COC1OC(=O)C(Cl)=C1Cl (stereo not given)
pIC50 (BEAS-2B): 5.34
pIC50 (A549 [1]): 5.29
log(RatioIC50) [2]: 0.05

CCCCOC1OC(=O)C(Cl)=C1Cl (stereo not given)
pIC50 (BEAS-2B): 4.65
pIC50 (A549 [1]): 4.65
log(RatioIC50) [2]: 0

CC(C)(C)COC1OC(=O)C(Cl)=C1Nc1ccccc1 (stereo not given)
pIC50 (BEAS-2B): 4.12
pIC50 (A549 [1]): 4.12
log(RatioIC50) [2]: 0

CC(C)OC1OC(=O)C(Cl)=C1Nc1ccc(Br)cc1 (stereo not given)
pIC50 (BEAS-2B): 3.69
pIC50 (A549 [1]): 4.02
log(RatioIC50) [2]: 0.32

CC(C)(C)COC1OC(=O)C(Cl)=C1N1CCCCC1 (stereo not given)
pIC50 (BEAS-2B): < 3.40
pIC50 (A549 [1]): < 3.40
